Laboratory results taken from PubChem BioAssay AID2060509 (Molecular Pharmacology Branch, DTP, NCI, 2025).

Test system: 485176-168-R4-J1-PDC spheroids with HUVEC/MSC, viability
Assay: Anticancer human tumor 485176-168-R4-J1-PDC patient-derived pancreatic adenocarcinoma cell line growth inhibition [GQUAD]
Conditions: for IC50: curve of first compound; for viability, T/C: stronger effect = lower value
From the text: DNA G-quadruplex Stabilizer Agents in Combinations in Complex Spheroids
A high-throughput screen of multi-cell type tumor spheroids was designed to identify active combinations of DNA G-quadruplex stabilizer agents and targeted small molecules. Complex spheroids include a stromal component modeled by human endothelial cells (HUVEC) and fibroblasts modeled by human mesenchymal stem cells (MSCs). The concentration ranges selected for each drug and investigational agent were based upon clinically achievable concentrations if the clinical Cmax of the agent was known.
Compounds. The drugs and investigational agents: pidnarulex (CX-5461; NSC782164), APTO-253 (NSC789042), BRACO-19 (NSC847499), peposertib (NSC802822), ceralasertib (NSC780249), elimusertib (NSC800525), camonsertib (NSC841442), AZD-1390 (NSC803789), olaparib (NSC753686), talazoparib (NSC767125), ART-558 (NSC835418), sotorasib (NSC818433), MRTX-1133 (NSC836407), SN-38 (NSC673596), topotecan (NSC609699), etoposide (NSC141540), doxorubicin (NSC123127), gemcitabine (NSC613327), 5-fluorouracil (NSC19893), paclitaxel (NSC125973), vemurafenib (NSC761431), panobinostat (NSC761190), R-306465 (JNJ-16241199; NSC773264), adavosertib (NSC754352), TP-3654 (NSC805149), carboplatin (NSC241240), KSQ-4279 (NSC840948), and staurosporine (NSC755774) were obtained from the National Cancer Institute (NCI) Developmental Therapeutics Program Chemical Repository (34). The FDA-approved anticancer drug set is available from the NCI Developmental Therapeutics Program. […] The stock solutions were prepared in dimethyl sulfoxide (DMSO, Sigma-Aldrich, St. Louis, MO, cat. D2650) at 800-fold the tested concentration and stored at -70 degrees C prior to their use. All drugs and investigational agents were tested over a range starting from a high concentration at or near the clinical Cmax and decreasing in half-log increments. If the clinical Cmax for an agent had not been determined, the highest concentration tested was 10 microM.
2.3 Cell Culture. All cells were maintained in an incubator at 37 degrees C and 5% CO2 with 95% humidity. The PDC lines were cultured according to standard operating procedures established by the NCI PDMR. All PDCs were thawed and cultured in Matrigel-coated flasks prepared with a working solution of 1X Ham's F-12 nutrient mix, without supplementation (Invitrogen, cat. 11765054), 100 U/mL penicillin-streptomycin (Invitrogen, cat. 15140122), and 2.5% Matrigel (Corning Inc., cat. 354248) for the first three passages. The 857933-349-R-J2-PDC line was cultured in 6C/Colon 1B media, which includes advanced DMEM/F-12 (Thermo Fisher Scientific, cat. 12634028), 10 mM HEPES (Thermo Fisher Scientific, cat. 15630080), 1X GlutaMAX supplement (Thermo Fisher Scientific, cat. 35050061), 0.1 mg/mL primocin (InvivoGen, cat. ant-pm-2), 10% defined fetal bovine serum, heat inactivated (HyClone Laboratories Inc., cat. SH30070.03HI), 50% L-WRN conditioned media (ATCC, cat. CRL-3276), 1.25 mM N-Acetyl-L-cysteine (Sigma-Aldrich, cat. A9165), 10 mM nicotinamide (Sigma-Aldrich, cat. N0636), 1X B-27 supplement (Thermo Fisher Scientific, cat. 17504044), 1X N-2 supplement (Thermo Fisher Scientific, cat. 17502048), 10 microM Y-27632 dihydrochloride (Tocris Bioscience, cat. 1254), and 50 ng/mL human EGF recombinant protein (Thermo Fisher Scientific, cat. PHG0311). The 485176-168-R4-J1-PDC line was cultured in Panc media, which includes all 6C/Colon 1B media components plus 100 ng/mL human FGF-10 (Thermo Fisher Scientific, cat. 100-26), 500 nM SB-431542 (Selleckchem, cat. S1067), and gastrin (Tocris, cat. 3006).
[…]

[1] = second compound 0.0316 µM, first compound 0.0316 µM
[2] = second compound 0.0316 µM, first compound 0.1 µM
[3] = second compound 0.0316 µM, first compound 0.316 µM
[4] = second compound 0.0316 µM, first compound 1 µM
[5] = second compound 0.0316 µM, first compound 3.16 µM
[6] = second compound 0.0316 µM, first compound 10 µM
[7] = second compound 0.1 µM, first compound 0.0316 µM
[8] = second compound 0.1 µM, first compound 0.1 µM
[9] = second compound 0.1 µM, first compound 0.316 µM
[10] = second compound 0.1 µM, first compound 1 µM
[11] = second compound 0.1 µM, first compound 3.16 µM
[12] = second compound 0.1 µM, first compound 10 µM
[13] = second compound 0.316 µM, first compound 0.0316 µM
[14] = second compound 0.316 µM, first compound 0.1 µM
[15] = second compound 0.316 µM, first compound 0.316 µM
[16] = second compound 0.316 µM, first compound 1 µM
[17] = second compound 0.316 µM, first compound 3.16 µM
[18] = second compound 0.316 µM, first compound 10 µM
[19] = second compound 1 µM, first compound 0.0316 µM
[20] = second compound 1 µM, first compound 0.1 µM
[21] = second compound 1 µM, first compound 0.316 µM
[22] = second compound 1 µM, first compound 1 µM
[23] = second compound 1 µM, first compound 3.16 µM
[24] = second compound 1 µM, first compound 10 µM
[25] = second compound 3.16 µM, first compound 0.0316 µM
[26] = second compound 3.16 µM, first compound 0.1 µM
[27] = second compound 3.16 µM, first compound 0.316 µM
[28] = second compound 3.16 µM, first compound 1 µM
[29] = second compound 3.16 µM, first compound 3.16 µM
[30] = second compound 3.16 µM, first compound 10 µM
[31] = second compound 10 µM, first compound 0.0316 µM
[32] = second compound 10 µM, first compound 0.1 µM
[33] = second compound 10 µM, first compound 0.316 µM
[34] = second compound 10 µM, first compound 1 µM
[35] = second compound 10 µM, first compound 3.16 µM
[36] = second compound 10 µM, first compound 10 µM
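Note: spheroids exposed to compounds for seven days before readout.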
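Throughout, for viability, T/C: percent viability relative to DMSO vehicle control wells as 100%.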

Work on `C=CCn1c(=O)c2cnc(Nc3ccc(N4CCN(C)CC4)cc3)nc2n1-c1cccc(C(C)(C)O)n1` + CN(C)c1ccc(Nc2c3ccc(NC(=O)CCN4CCCC4)cc3nc3cc(NC(=O)CCN4CCCC4)ccc23)cc1 yielded an IC50 (second compound 0.0316 µM) of 554 nM, an IC50 (second compound 0.1 µM) of 544 nM and an IC50 (second compound 0.316 µM) of 344 nM. It also gave an IC50 (second compound 1 µM) of 450 nM, an IC50 (second compound 3.16 µM) of 507 nM and an IC50 (second compound 10 µM) of 459 nM. It also gave a viability, T/C [1] of 98.2%, a viability, T/C [2] of 89.9% and a viability, T/C [3] of 79.2%. For the same compound, the viability, T/C [4] was 19.5%, the viability, T/C [5] was 7.62% and the viability, T/C [6] was 4.64%. The viability, T/C [7] was 101%, the viability, T/C [8] was 88.2% and the viability, T/C [9] was 76%. The viability, T/C [10] was 21.3%, the viability, T/C [11] was 8.2% and the viability, T/C [12] was 4.88%. It also gave a viability, T/C [13] of 116%, a viability, T/C [14] of 93.7% and a viability, T/C [15] of 53.8%. For the same compound, the viability, T/C [16] was 17.2%, the viability, T/C [17] was 6.62% and the viability, T/C [18] was 4.69%. The viability, T/C [19] was 88.7%, the viability, T/C [20] was 84.9% and the viability, T/C [21] was 62.5%. For the same compound, the viability, T/C [22] was 21.5%, the viability, T/C [23] was 10.6% and the viability, T/C [24] was 4.67%. It also gave a viability, T/C [25] of 93.1%, a viability, T/C [26] of 92.8% and a viability, T/C [27] of 71.8%. It also gave a viability, T/C [28] of 18.2%, a viability, T/C [29] of 12.4% and a viability, T/C [30] of 4.45%. The viability, T/C [31] was 84.4%, the viability, T/C [32] was 75.1% and the viability, T/C [33] was 62.5%. It also gave a viability, T/C [34] of 26.4%, a viability, T/C [35] of 9.3% and a viability, T/C [36] of 6.12%.
`CC(C)(O)C1CCC(Nc2ccc3ncc(-c4cccc(C(F)(F)F)c4)n3n2)CC1` (centres undefined) + CN(C)c1ccc(Nc2c3ccc(NC(=O)CCN4CCCC4)cc3nc3cc(NC(=O)CCN4CCCC4)ccc23)cc1 was tested, and the IC50 (second compound 0.0316 µM) was over 10000 nM, the IC50 (second compound 0.1 µM) was over 10000 nM and the IC50 (second compound 0.316 µM) was over 10000 nM. The IC50 (second compound 1 µM) was 6250 nM, the IC50 (second compound 3.16 µM) was 2740 nM and the IC50 (second compound 10 µM) was 1500 nM. It also gave a viability, T/C [1] of 101%, a viability, T/C [2] of 104% and a viability, T/C [3] of 86.1%. For the same compound, the viability, T/C [4] was 78.8%, the viability, T/C [5] was 56.7% and the viability, T/C [6] was 51.1%. It also gave a viability, T/C [7] of 83.8%, a viability, T/C [8] of 89.5% and a viability, T/C [9] of 88.7%. The viability, T/C [10] was 77.7%, the viability, T/C [11] was 64.5% and the viability, T/C [12] was 51%. It also gave a viability, T/C [13] of 104%, a viability, T/C [14] of 84.6% and a viability, T/C [15] of 100%. For the same compound, the viability, T/C [16] was 97.9%, the viability, T/C [17] was 56.2% and the viability, T/C [18] was 59.1%. It also gave a viability, T/C [19] of 111%, a viability, T/C [20] of 104% and a viability, T/C [21] of 82.2%. The viability, T/C [22] was 91.4%, the viability, T/C [23] was 56.6% and the viability, T/C [24] was 42.1%. The viability, T/C [25] was 88.1%, the viability, T/C [26] was 81.1% and the viability, T/C [27] was 92.1%. For the same compound, the viability, T/C [28] was 97.7%, the viability, T/C [29] was 44.4% and the viability, T/C [30] was 37.3%. For the same compound, the viability, T/C [31] was 89%, the viability, T/C [32] was 85.7% and the viability, T/C [33] was 72.6%. For the same compound, the viability, T/C [34] was 65.9%, the viability, T/C [35] was 25.4% and the viability, T/C [36] was 16.4%.
